How the values were obtained:
[1] = target: [35S]-TBPS binding in rat brain cortical membranes; test: Steroid inhibition of [35S]-TBPS binding, rat brain cortical membranes; conditions: 3 nM [35S]-TBPS, in the presence of 5 μM GABA, read-out: 35S-TBPS Radioligand Displacement (IC50)
Protocol: TBPS binding assays using rat brain cortical membranes in the presence of 5 μM GABA has been described (Gee et al, J. Pharmacol. Exp. Ther. 1987, 241, 346-353; Hawkinson et al, Mol. Pharmacol. 1994, 46, 977-985; Lewin, A. H et al., Mol. Pharmacol. 1989, 35, 189-194).
Briefly, cortices are rapidly removed following decapitation of carbon dioxide-anesthetized Sprague-Dawley rats (200-250 g). The cortices are homogenized in 10 volumes of ice-cold 0.32 M sucrose using a glass/teflon homogenizer and centrifuged at 1500×g for 10 min at 4° C. The resultant supernatants are centrifuged at 10,000×g for 20 min at 4° C. to obtain the P2 pellets. The P2 pellets are resuspended in 200 mM NaCl/50 mM Na—K phosphate pH 7.4 buffer and centrifuged at 10,000×g for 10 min at 4° C. This washing procedure is repeated twice and the pellets are resuspended in 10 volumes of buffer. Aliquots (100 μL) of the membrane suspensions are incubated with 3 nM [^35S]-TBPS and 5 μL aliquots of test drug dissolved in dimethyl sulfoxide (DMSO) (final 0.5%) in the presence of 5 μM GABA. The incubation is brought to a final volume of 1.0 mL with buffer. Nonspecific binding is determined in the presence of 2 μM unlabeled TBPS and ranged from 15 to 25%. Following a 90 min incubation at room temp, the assays are terminated by filtration through glass fiber filters (Schleicher and Schuell No. 32) using a cell harvester (Brandel) and rinsed three times with ice-cold buffer. Filter bound radioactivity is measured by liquid scintillation spectrometry. Non-linear curve fitting of the overall data for each drug averaged for each concentration is done using Prism (GraphPad). […] The concentration of test compound producing 50% inhibition (IC50) of specific binding and the maximal extent of inhibition (Imax) are determined for the individual experiments with the same model used for the overall data and then the mean±SEM.s of the individual experiments are calculated.
Various compounds are or can be screened to determine their potential as modulators of [^35S]-TBPS binding in vitro. These assays are or can be performed in accordance with the above discussed procedures.

[2] = target: T1, GABAA receptors composed of the α1β2γ2 subunits (GABRA1/GABRB2/GABRG2) (Homo sapiens, UniProt P14867+P47870); test: Two Electrode Voltage Clamp (TEVC), GABA receptor potentiation in Xenopus laevis oocytes, α1β2γ2; format: cell-based; conditions: 10 μM compound, 10 μM GABA, read-out: GABA (α1β2γ2) % efficacy at 10 μM
T1 construct: expressed in transfected cells; host or cells: Xenopus laevis oocytes, injected (ratio 1:1:1)
Protocol: The Two Electrode Voltage Clamp (TEVC) technique was used to investigate the effects of compounds at a concentration of 10 μM on GABAA receptors composed of the α1β2γ2 or α4β3δ subunits expressed in oocytes from the Xenopus laevis. GABA-evoked currents were recorded from oocytes that expressed the GABA receptors and the modulatory effects of the test items on these currents were investigated.
Ovaries were harvested from Xenopus laevis females that had been deeply anesthetized by cooling at 4° C. and immersion in Tricaine methanesulfonate (MS-222 at a concentration of 150 mg/L) in sodium bicarbonate (300 mg/L). Once anesthetized the animal was decapitated and pithed following the rules of animal rights from the Geneva canton. A small piece of ovary was isolated for immediate preparation while the remaining part was placed at 4° C. in a sterile Barth solution containing in mM NaCl 88, KCl 1, NaHCO3 2.4, HEPES 10, MgSO4·7H2O 0.82, Ca(NO3)2·4H2O 0.33, CaCl2·6H2O 0.41, at pH 7.4, and supplemented with 20 μg/ml of kanamycin, 100 unit/ml penicillin and 100 μg/ml streptomycin. All recordings were performed at 18° C. and cells were super-fused with medium containing in mM: NaCl 82.5, KCl 2.5, HEPES 5, CaCl2·2H2O, ·6H2O 1, pH 7.4.
Plasmids containing the RNAs of the human GABRA1/GABRB2/GABRG2 and GABRA4/GABRB3/GABRD genes were injected into oocytes using a proprietary automated injection device (Hogg el al., J. Neurosci. Methods, (2008) 169: 65-75). These genes encode for the α1β2γ2 and α4β3δ GABAA subunits respectively. Receptor expression was assessed using electrophysiology at least two days later. The ratio of RNA injection for α1β2γ2 was 1:1:1 and for α4β3δ was 5:1:5. Electrophysiological recordings were made using an automated process equipped with standard TEVC and data were captured and analyzed using a proprietary data acquisition and analysis software running under Matlab (Mathworks Inc.). The membrane potential of the oocytes was maintained at −80 mV throughout the experiments. To explore the effects of proprietary compounds, currents were evoked by applying 10 μM (α1β2γ2) or 3 μM (α4β3δ) GABA for 30 s. These concentrations approximated the EC50 concentration of GABA at each receptor subtype. Oocytes were then re-exposed to GABA again for 30 s. 15 s after beginning the GABA application, test article was co-applied at a concentration of 10 μM for 15 s. Potentiation of the peak current was assessed. Data was filtered at 10 Hz, captured at 100 Hz and analyzed using proprietary data acquisition and analysis software running under Matlab (Mathworks Inc.). For statistical analysis values were computed either with Excel (Microsoft) or Matlab (mathworks Inc.). To obtain mean measurements with standard deviations, all experiments were carried out using at least three cells.

T1 sequence (P14867 28-456): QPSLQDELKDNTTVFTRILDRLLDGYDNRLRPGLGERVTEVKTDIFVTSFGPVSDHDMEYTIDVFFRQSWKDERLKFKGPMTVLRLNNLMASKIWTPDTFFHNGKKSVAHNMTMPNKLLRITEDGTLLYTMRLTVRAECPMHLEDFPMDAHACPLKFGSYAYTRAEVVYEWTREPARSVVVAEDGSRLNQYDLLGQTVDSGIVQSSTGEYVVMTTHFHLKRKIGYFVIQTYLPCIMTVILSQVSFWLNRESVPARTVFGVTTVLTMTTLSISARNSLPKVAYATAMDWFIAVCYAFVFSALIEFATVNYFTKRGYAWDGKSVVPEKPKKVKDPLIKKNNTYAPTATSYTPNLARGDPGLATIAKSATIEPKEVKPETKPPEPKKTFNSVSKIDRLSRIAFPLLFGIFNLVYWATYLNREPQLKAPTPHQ
T1 sequence (P47870 26-512): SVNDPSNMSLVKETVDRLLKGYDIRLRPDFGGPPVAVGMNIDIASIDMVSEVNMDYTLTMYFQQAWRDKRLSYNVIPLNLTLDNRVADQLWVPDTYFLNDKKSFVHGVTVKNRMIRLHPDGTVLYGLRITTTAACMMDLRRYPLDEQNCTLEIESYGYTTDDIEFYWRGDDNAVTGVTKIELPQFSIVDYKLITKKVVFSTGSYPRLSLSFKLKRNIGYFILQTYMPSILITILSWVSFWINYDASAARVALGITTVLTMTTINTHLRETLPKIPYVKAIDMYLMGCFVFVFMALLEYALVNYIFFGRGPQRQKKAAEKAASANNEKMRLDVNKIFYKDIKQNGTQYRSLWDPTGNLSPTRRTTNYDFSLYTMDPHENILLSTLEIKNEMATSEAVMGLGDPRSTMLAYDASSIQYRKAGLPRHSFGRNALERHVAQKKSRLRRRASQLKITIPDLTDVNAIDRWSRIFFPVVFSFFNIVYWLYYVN
T1 sequence (P18507 40-475 partner): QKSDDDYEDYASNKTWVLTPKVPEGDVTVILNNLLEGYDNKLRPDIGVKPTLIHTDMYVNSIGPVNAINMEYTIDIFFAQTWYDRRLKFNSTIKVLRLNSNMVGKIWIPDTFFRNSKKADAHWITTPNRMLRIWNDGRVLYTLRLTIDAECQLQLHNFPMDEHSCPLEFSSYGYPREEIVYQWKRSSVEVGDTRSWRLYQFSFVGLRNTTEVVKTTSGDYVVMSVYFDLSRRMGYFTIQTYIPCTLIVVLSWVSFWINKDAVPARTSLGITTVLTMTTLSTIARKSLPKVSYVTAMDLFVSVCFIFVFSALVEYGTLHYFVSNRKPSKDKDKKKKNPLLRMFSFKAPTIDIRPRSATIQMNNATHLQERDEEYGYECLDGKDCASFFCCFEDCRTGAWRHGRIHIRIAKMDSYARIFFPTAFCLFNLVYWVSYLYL

## COC[C@]12CC[C@@](C)(O)C[C@@H]1CC[C@H]1[C@@H]3CC[C@H](C(=O)Cn4nnc(C)n4)[C@@]3(C)CC[C@@H]12 [Compound 17]
[1]
  IC50: > 500 nM
[2]
  Emax at 10 µM: 1000 to 1500%

## COC[C@]12CC[C@@](C)(O)C[C@@H]1CC[C@H]1[C@@H]3CC[C@H](C(=O)Cn4cc(C)cn4)[C@@]3(C)CC[C@@H]12 [Compound 20]
[2]
  Emax at 10 µM: 500 to 1000%

## COC[C@]12CC[C@@](C)(O)C[C@@H]1CC[C@H]1[C@@H]3CC[C@H](C(=O)Cn4cnc(C)c4)[C@@]3(C)CC[C@@H]12 [Compound 23]
[1]
  IC50: 100 to 500 nM
[2]
  Emax at 10 µM: 500 to 1000%

## COC[C@]12CC[C@@](C)(O)C[C@@H]1CC[C@H]1[C@@H]3CC[C@H](C(=O)Cn4cc(S(C)(=O)=O)cn4)[C@@]3(C)CC[C@@H]12 [Compound 24]
[1]
  IC50: 100 to 500 nM
[2]
  Emax at 10 µM: 500 to 1000%

## CCOC[C@]12CC[C@@](C)(O)C[C@@H]1CC[C@H]1[C@@H]3CC[C@H](C(=O)Cn4nnc(C)n4)[C@@]3(C)CC[C@@H]12 [Compound 25]
[1]
  IC50: 10 to 50 nM
[2]
  Emax at 10 µM: 500 to 1000%

## COC[C@]12CC[C@@](C)(O)C[C@H]1CC[C@H]1[C@@H]3CC[C@H](C(=O)Cn4nccn4)[C@@]3(C)CC[C@@H]12 [Compound 31]
[1]
  IC50: 10 to 50 nM
[2]
  Emax at 10 µM: 500 to 1000%

## COC[C@]12CC[C@@](C)(O)C[C@@H]1CC[C@H]1[C@@H]3CC[C@H](C(=O)Cn4ncc5ncccc54)[C@@]3(C)CC[C@@H]12 [Compound 38]
[1]
  IC50: 50 to 100 nM
[2]
  Emax at 10 µM: 500 to 1000%

## COC[C@]12CC[C@@](C)(O)C[C@@H]1CC[C@H]1[C@@H]3CC[C@H](C(=O)Cn4nnc5ccccc54)[C@@]3(C)CC[C@@H]12 [Compound 39]
[1]
  IC50: 10 to 50 nM
[2]
  Emax at 10 µM: 500 to 1000%

## COC[C@]12CC[C@@](C)(O)C[C@@H]1CC[C@H]1[C@@H]3CC[C@H](C(=O)Cn4nnc5ccc(F)cc54)[C@@]3(C)CC[C@@H]12 [Compound 41]
[1]
  IC50: 10 to 50 nM
[2]
  Emax at 10 µM: 1000 to 1500%

## COC[C@]12CC[C@@](C)(O)C[C@@H]1CC[C@H]1[C@@H]3CC[C@H](C(=O)Cn4nnc5cc(F)ccc54)[C@@]3(C)CC[C@@H]12 [Compound 42]
[1]
  IC50: 10 to 50 nM
[2]
  Emax at 10 µM: 500 to 1000%

## COC[C@]12CC[C@@](C)(O)C[C@@H]1CC[C@H]1[C@@H]3CC[C@H](C(=O)Cn4cc5ccncc5n4)[C@@]3(C)CC[C@@H]12 [Compound 44]
[1]
  IC50: 10 to 50 nM
[2]
  Emax at 10 µM: 1000 to 1500%

## COC[C@]12CC[C@@](C)(O)C[C@@H]1CC[C@H]1[C@@H]3CC[C@H](C(=O)Cn4cnc5ccccc54)[C@@]3(C)CC[C@@H]12 [Compound 46]
[1]
  IC50: 50 to 100 nM
[2]
  Emax at 10 µM: 1000 to 1500%

## COC[C@]12CC[C@@](C)(O)C[C@@H]1CC[C@H]1[C@@H]3CC[C@H](C(=O)Cn4nc5cccc(F)c5n4)[C@@]3(C)CC[C@@H]12 [Compound 49]
[1]
  IC50: 10 to 50 nM
[2]
  Emax at 10 µM: 500 to 1000%

## COC[C@]12CC[C@@](C)(O)C[C@@H]1CC[C@H]1[C@@H]3CC[C@H](C(=O)Cn4nc5ccc(OC)cc5n4)[C@@]3(C)CC[C@@H]12 [Compound 50]
[1]
  IC50: 10 to 50 nM
[2]
  Emax at 10 µM: 500 to 1000%

## COC[C@]12CC[C@@](C)(O)C[C@@H]1CC[C@H]1[C@@H]3CC[C@H](C(=O)Cn4nnc5c(F)c(F)ccc54)[C@@]3(C)CC[C@@H]12 [Compound 53]
[1]
  IC50: 50 to 100 nM
[2]
  Emax at 10 µM: 50 to 500%

## COC[C@]12CC[C@@](C)(O)C[C@@H]1CC[C@H]1[C@@H]3CC[C@H](C(=O)Cn4nnc5c(F)cc(F)cc54)[C@@]3(C)CC[C@@H]12 [Compound 56]
[1]
  IC50: 50 to 100 nM
[2]
  Emax at 10 µM: 50 to 500%

## COC[C@]12CC[C@@](C)(O)C[C@@H]1CC[C@H]1[C@@H]3CC[C@H](C(=O)Cn4nnc5c(Cl)cccc54)[C@@]3(C)CC[C@@H]12 [Compound 60]
[1]
  IC50: 10 to 50 nM
[2]
  Emax at 10 µM: 50 to 500%

## COC[C@]12CC[C@@](C)(O)C[C@@H]1CC[C@H]1[C@@H]3CC[C@H](C(=O)Cn4nc5cccc(Cl)c5n4)[C@@]3(C)CC[C@@H]12 [Compound 61]
[1]
  IC50: < 10 nM
[2]
  Emax at 10 µM: 500 to 1000%

## COC[C@]12CC[C@@](C)(O)C[C@@H]1CC[C@H]1[C@@H]3CC[C@H](C(=O)Cn4nnc5c(OC)c(OC)ccc54)[C@@]3(C)CC[C@@H]12 [Compound 63]
[1]
  IC50: 10 to 50 nM
[2]
  Emax at 10 µM: 500 to 1000%

## COC[C@]12CC[C@@](C)(O)C[C@@H]1CC[C@H]1[C@@H]3CC[C@H](C(=O)Cn4nc5cc(OC)cc(OC)c5n4)[C@@]3(C)CC[C@@H]12 [Compound 65]
[1]
  IC50: < 10 nM
[2]
  Emax at 10 µM: 500 to 1000%

## COC[C@]12CC[C@@](C)(O)C[C@H]1CC[C@H]1[C@@H]3CC[C@H](C(=O)Cn4nc5ccc(F)cc5n4)[C@@]3(C)CC[C@@H]12 [Compound 73]
[1]
  IC50: < 10 nM
[2]
  Emax at 10 µM: 500 to 1000%

## COC[C@]12CC[C@@](C)(O)C[C@H]1CC[C@H]1[C@@H]3CC[C@H](C(=O)Cn4nnc5ccc(F)cc54)[C@@]3(C)CC[C@@H]12 [Compound 74]
[1]
  IC50: < 10 nM
[2]
  Emax at 10 µM: 500 to 1000%

## COC[C@]12CC[C@@](C)(O)C[C@H]1CC[C@H]1[C@@H]3CC[C@H](C(=O)Cn4nnc5cc(F)ccc54)[C@@]3(C)CC[C@@H]12 [Compound 75]
[1]
  IC50: 10 to 50 nM
[2]
  Emax at 10 µM: 500 to 1000%

## COC[C@]12CC[C@@](C)(O)C[C@H]1CC[C@H]1[C@@H]3CC[C@H](C(=O)Cn4nnc5ccc(F)c(F)c54)[C@@]3(C)CC[C@@H]12 [Compound 77]
[1]
  IC50: < 10 nM
[2]
  Emax at 10 µM: 1000 to 1500%

## COC[C@]12CC[C@@](C)(O)C[C@@H]1CC[C@H]1[C@@H]3CC[C@H](C(=O)Cn4nnc5cc(OC(F)(F)F)ccc54)[C@@]3(C)CC[C@@H]12 [Compound 146]
[1]
  IC50: 50 to 100 nM

## COC[C@]12CC[C@@](C)(O)C[C@@H]1CC[C@H]1[C@@H]3CC[C@H](C(=O)Cn4cc5nccnc5n4)[C@@]3(C)CC[C@@H]12 [Compound 154]
[1]
  IC50: > 500 nM

## COC[C@]12CC[C@@](C)(O)C[C@@H]1CC[C@H]1[C@@H]3CC[C@H](C(=O)Cn4ncc5nccnc54)[C@@]3(C)CC[C@@H]12 [Compound 155]
[1]
  IC50: 50 to 100 nM

## COC[C@]12CC[C@@](C)(O)C[C@H]1CC[C@H]1[C@@H]3CC[C@H](C(=O)Cn4nnc5c(F)cccc54)[C@@]3(C)CC[C@@H]12 [Compound 157]
[1]
  IC50: 10 to 50 nM

## COC[C@]12CC[C@](O)(C(F)(F)F)C[C@H]1CC[C@H]1[C@@H]3CC[C@H](C(=O)Cn4nnc5c(F)c(F)ccc54)[C@@]3(C)CC[C@@H]12 [Compound 161]
[1]
  IC50: 100 to 500 nM

## COC[C@]12CC[C@](O)(C(F)(F)F)C[C@H]1CC[C@H]1[C@@H]3CC[C@H](C(=O)Cn4nc5ccc(F)c(F)c5n4)[C@@]3(C)CC[C@@H]12 [Compound 162]
[1]
  IC50: 100 to 500 nM

## CCOC[C@]12CC[C@@](C)(O)C[C@@H]1CC[C@H]1[C@@H]3CC[C@H](C(=O)Cn4cc(C#N)cn4)[C@@]3(C)CC[C@@H]12 [Compound 171]
[1]
  IC50: 10 to 50 nM
